Source: paper PMC6227957, “Peptides derived from cadherin juxtamembrane region inhibit platelet function” (Royal Society Open Science, 2018)

Assays:
[1] = test system: washed human platelets; assay: Platelet ATP secretion, luminescence-based assay; type: cell-based; settings: for Platelet ATP secretion induced by peptide alone (basal, no agonist) / Effect on TRAP-induced platelet ATP secretion: 50 µM peptide, washed human platelets; for Platelet ATP secretion induced by peptide alone (basal, no agonist): 12 min at 37°C, without TRAP, n = 6, figure 2; for Effect on TRAP-induced platelet ATP secretion: preincubated 12 min at 37°C, then 4 µM TRAP for 3 min, luminescence arb. units, figures 2, 3c,d; for Effect on TRAP-induced platelet ATP secretion, alanine scan and control peptides of KEPLLP: 12.5 µM peptide, n = 4 donors, figure 5a,b
Procedure: Washed platelets (WPs) were prepared from blood samples collected from healthy donors who were free of medications known to affect platelet function for at least 10 days, as previously described. Written, informed consent was obtained from all participants in line with the Declaration of Helsinki. In brief, venous blood was drawn into 15% (v/v) of acid-citrate-dextrose (ACD) anticoagulant (38 mM citric acid anhydrous, 75 mM sodium citrate, 124 mM dextrose). Blood was centrifuged at 150g for 10 min and the platelet-rich plasma (PRP) was collected. PRP was further centrifuged at 720g for 10 min in the presence of 1 µM prostaglandin E1 (PGE1). The platelet pellet was resuspended in buffer A (6 mM dextrose, 130 mM NaCl, 9 mM NaHCO3, 10 mM sodium citrate, 10 mM Tris base, 3 mM KCl, 0.81 mM KH2PO4 and 0.9 mM MgCl2·6H2O, pH 7.4). The washed platelet count was adjusted to 3 × 10^8 platelets ml^−1 and supplemented with 1.8 mM CaCl2 immediately prior to use.
ATP secretion was measured using a luminescence-based assay, as previously described. Peptides, buffer or vehicle control, in a final volume of 10 µl, were dispensed into white 96-well plates. To this, 70 µl of WPs were gently added. Platelets were incubated with peptides at 37°C for 12 min (under shaking) in the Perkin Elmer 1420 96-well plate reader. Platelet agonist (TRAP; 4 µM; 10 µl) was then added to induce platelet ATP secretion. The suspension (peptide + platelets + agonist) was incubated for 3 min at 37°C with constant shaking. Finally, 10 µl of ATP detecting reagent chronolume (Labmedics, UK) was dispensed into each well and luminescence was measured using the Perkin Elmer 1420 96-well plate reader. Platelet ATP secretion response to peptides was measured in the presence and absence of agonist. Data were expressed as the amount of ATP secretion in luminescence arbitrary units (arb. units). Data are represented as the mean ± standard error mean (s.e.m.) of at least four independent donors.

[2] = test system: washed human platelets; assay: Platelet ATP secretion, luminescence-based assay; type: cell-based; settings: TRAP 0.25 to 16 µM for 3 min at 37°C; n = 4 donors; figure S1

CCCCCCCCCCCCCCCC(=O)NCCCOCCOCCOCCCNC(=O)CCC(N)=O [palmitic acid connected to a Ttds linker, reference compound]
Platelet ATP secretion induced by peptide alone (basal, no agonist) [1]: no effect
Effect on TRAP-induced platelet ATP secretion ([1]; n = 6 donors): no effect

CCCCCCCCCCCCCCCC(=O)O [palmitic acid, reference compound]
Platelet ATP secretion induced by peptide alone (basal, no agonist) [1]: no effect
Effect on TRAP-induced platelet ATP secretion ([1]; n = 6 donors): no effect

EEPLLP [KEPLLP with lysine replaced with glutamic acid, palmitoylated and amidated]
Effect on TRAP-induced platelet ATP secretion, alanine scan and control peptides of KEPLLP ([1]; 4 µM TRAP): loss of inhibitory effect

EKPLLP [N-terminus reverse charge peptide of KEPLLP, palmitoylated and amidated]
Effect on TRAP-induced platelet ATP secretion, alanine scan and control peptides of KEPLLP ([1]; 4 µM TRAP): retained partial inhibitory activity

KEPAAP [KEPLLP with LL replaced with AA, palmitoylated and amidated]
Effect on TRAP-induced platelet ATP secretion, alanine scan and control peptides of KEPLLP ([1]; 4 µM TRAP): loss of peptide activity

KEPLAP [KEPLLP with one leucine replaced with alanine, palmitoylated and amidated]
Effect on TRAP-induced platelet ATP secretion, alanine scan and control peptides of KEPLLP ([1]; 4 µM TRAP): loss of peptide activity

KEPLLP [Non-palmitoylated KEPLLP, KEPLLP peptide with no palmitoylation]
Effect of peptide with no palmitoylation on TRAP-induced platelet ATP secretion ([1]; 50 µM peptide for 12 min at 37°C before 4 µM TRAP, n = 4, figure S4): failed to inhibit

KEPLLP [short motif truncated from E-cad 2, N-terminally palmitoylated and C-terminally amidated]
Effect of truncated E-cad 2 peptides on TRAP-induced platelet ATP secretion ([1]; 4 µM TRAP, n = 6 donors, figure 4a): most potent inhibitor
Lowest peptide concentration that significantly inhibited TRAP-induced platelet ATP secretion ([1]; dose-response study, 4 µM TRAP, n = 4, figure 4b): 12.5 µM

PLLPKE [randomly scrambled peptide of KEPLLP, palmitoylated and amidated]
Effect on TRAP-induced platelet ATP secretion, alanine scan and control peptides of KEPLLP ([1]; 4 µM TRAP): failed to inhibit

SFLLRN [TRAP, reference compound]
ATP secretion response at 4 µM TRAP relative to the maximal response ([1]; 4 µM TRAP, figure S1): approximately 80%
TRAP concentration at which ATP secretion is maximal [2]: 16 µM
